Measurements reported in PMC8230315, “A Pan-Inhibitor for Protein Arginine Methyltransferase Family Enzymes” (Biomolecules, 2021).
Read-outs that look alike come from different tables or passages of the source.

Tests used:
[1] = target: T1, PRMT1 (Homo sapiens, UniProt Q99873); assay: SAHH-coupled fluorescence assay, PRMT1 inhibition; format: biochemical; conditions: for IC50: PRMT1 0.1 µM, n = 2, mean ± SD; for Ki: calculated as Ki, app = IC50/(1 + [S]/Km), read-out: Ki, app
Procedure: A fluorescence-based SAHH-coupled assay was used to evaluate the IC50 values of inhibitors by monitoring the production of SAH from SAM after methylation. […] The fluorescence signal was monitored on a BMG CLARIOstar microplate reader with excitation at 400 nm and emission at 465 nm for 18 min. Data were processed using GraphPad Prism software 7.0. All experiments were performed in duplicate.
The fluorescence signal was monitored on a BMG CLARIOstar microplate reader with excitation at 400 nm and emission at 465 nm for 18 min. Data were processed using GraphPad Prism software 7.0. All experiments were performed in duplicate. […].

[2] = target: T2, SETD7 (Homo sapiens, UniProt Q8WTS6); assay: Selectivity SAHH-coupled fluorescence assay, SETD7; format: biochemical; conditions: at 100 μM
T2 construct: made in house
T2 sequence (Q8WTS6 1-366): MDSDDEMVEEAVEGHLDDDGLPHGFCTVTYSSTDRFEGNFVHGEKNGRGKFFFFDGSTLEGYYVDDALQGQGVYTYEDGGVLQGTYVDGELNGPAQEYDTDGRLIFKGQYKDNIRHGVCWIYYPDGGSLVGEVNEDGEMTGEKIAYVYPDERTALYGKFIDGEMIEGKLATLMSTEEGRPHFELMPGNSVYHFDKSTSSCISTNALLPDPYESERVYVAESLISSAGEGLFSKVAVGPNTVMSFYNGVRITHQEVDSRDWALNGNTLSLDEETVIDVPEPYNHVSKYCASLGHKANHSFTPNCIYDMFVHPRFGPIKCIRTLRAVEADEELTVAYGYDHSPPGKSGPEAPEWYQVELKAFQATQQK
Excerpt: (§1) We chose the top four potent compounds (6b and 6l–n) to investigate their selectivities against several in-house methyltransferases including protein arginine methyltransferase TbPRMT7, two members of the protein lysine methyltransferase PKMT (G9a and SETD7), protein N-terminal methyltransferase 1 (NTMT1), and a small molecule methyltransferase nicotinamide N-methyltransferase (NNMT), all of which have a SAM binding site.
A fluorescence-based SAHH-coupled assay was applied to study the effect of the compound on methyltransferase activity of PRMT7, NTMT1, SETD7, G9a, NNMT, and SAHH. For PRMT7, the assay was performed in a final well volume of 100 μL: 25 mM Tris (pH = 7.5), 50 mM KCl, 0.01% Triton X-100, 5 μM SAHH, 0.2 μM PRMT7, 3 μM AdoMet, and 15 μM ThioGlo1. After incubation for 10 min with the inhibitor, reactions were initiated by the addition of 60 μM H4-21 peptide, and the reaction was monitored for 15 min. For NTMT1, the assay was performed in a final well volume of 100 μL: 25 mM Tris (pH = 7.5), 50 mM KCl, 0.01% Triton X-100, 5 μM SAHH, 0.1 μM NTMT1, 3 μM AdoMet, and 10 μM ThioGlo4. After incubation for 10 min with the inhibitor, reactions were initiated by the addition of 0.5 μM GPKRIA peptide, and the reaction was monitored for 15 min. For SETD7, the assay was performed in a final well volume of 100 μL: 25 mM potassium phosphate buffer (pH = 7.6), 0.01% Triton X-100, 5 μM SAHH, 1 μM SETD7, 2 μM AdoMet, and 10 μM ThioGlo1. After incubation for 10 min with the inhibitor, reactions were initiated by the addition of 90 μM H3-21 peptide, and the reaction was monitored for 15 min. For G9a, the assay was performed in a final well volume of 100 μL: 25 mM potassium phosphate buffer (pH = 7.6), 1 mM EDTA, 2 mM MgCl2, 0.01% Triton X-100, 5 μM SAHH, 0.1 μM His-G9a, 10 μM AdoMet, and 10 μM ThioGlo4. For NNMT, the assay was performed in a final well volume of 100 μL: 25 mM Tris (pH = 7.5), 50 mM KCl, 0.01% Triton X- 100, 5 μM SAHH, 0.1 μM NNMT, 10 μM AdoMet, and 10 μM ThioGlo1. After incubation for 10 min with the inhibitor, reactions were initiated by the addition of 10 μM nicotinamide, and the reaction was monitored for 18 min. The inhibitors were added at five concentrations: 100, 33.3, 11.1, 3.7, and 1.2 μM.

[3] = target: T3, TbPRMT7 (Trypanosoma brucei brucei, UniProt Q582G4); assay: Selectivity SAHH-coupled fluorescence assay, TbPRMT7; format: biochemical; conditions: at 11.1 μM
T3 construct: made in house
Excerpt: as §1
A fluorescence-based SAHH-coupled assay was applied to study the effect of the compound on methyltransferase activity of PRMT7, NTMT1, SETD7, G9a, NNMT, and SAHH. For PRMT7, the assay was performed in a final well volume of 100 μL: 25 mM Tris (pH = 7.5), 50 mM KCl, 0.01% Triton X-100, 5 μM SAHH, 0.2 μM PRMT7, 3 μM AdoMet, and 15 μM ThioGlo1. After incubation for 10 min with the inhibitor, reactions were initiated by the addition of 60 μM H4-21 peptide, and the reaction was monitored for 15 min. […] After incubation for 10 min with the inhibitor, reactions were initiated by the addition of 0.5 μM GPKRIA peptide, and the reaction was monitored for 15 min. […] After incubation for 10 min with the inhibitor, reactions were initiated by the addition of 90 μM H3-21 peptide, and the reaction was monitored for 15 min. […] After incubation for 10 min with the inhibitor, reactions were initiated by the addition of 10 μM nicotinamide, and the reaction was monitored for 18 min. […]

[4] = target: T1, PRMT1; conditions: cited from earlier work
[5] = system: PRMT5/MEP50; parameters: method as in doi:10.1158/1538-7445.AM2018-4859; conditions: cited from earlier work
[6] = target: T4, PRMT4 (Homo sapiens, UniProt Q86X55); conditions: cited from earlier work
T4 construct: purchased Reaction Biology
T4 sequence (Q86X55 1-608): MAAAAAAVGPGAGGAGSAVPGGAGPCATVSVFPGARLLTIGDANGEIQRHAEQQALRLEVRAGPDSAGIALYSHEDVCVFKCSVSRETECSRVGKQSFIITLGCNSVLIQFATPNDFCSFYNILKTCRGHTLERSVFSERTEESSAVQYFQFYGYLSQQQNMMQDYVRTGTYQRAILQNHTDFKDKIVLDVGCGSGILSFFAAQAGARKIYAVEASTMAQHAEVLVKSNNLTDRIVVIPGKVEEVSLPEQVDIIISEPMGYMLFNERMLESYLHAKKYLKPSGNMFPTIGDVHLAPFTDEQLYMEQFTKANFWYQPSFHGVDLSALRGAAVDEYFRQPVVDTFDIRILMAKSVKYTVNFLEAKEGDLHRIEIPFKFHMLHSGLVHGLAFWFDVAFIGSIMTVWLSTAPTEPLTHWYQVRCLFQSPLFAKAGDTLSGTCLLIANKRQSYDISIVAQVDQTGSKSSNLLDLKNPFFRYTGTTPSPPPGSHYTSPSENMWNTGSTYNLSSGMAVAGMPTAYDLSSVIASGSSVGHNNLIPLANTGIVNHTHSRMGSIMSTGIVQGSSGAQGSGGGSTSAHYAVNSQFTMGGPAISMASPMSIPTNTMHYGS

[7] = at Km of SAM (10 µM) and H4-21 peptide (5 µM)
[8] = substrate concentration at 4 Km (footnote a)

T1 sequence (Q99873 whole entry, species assumed): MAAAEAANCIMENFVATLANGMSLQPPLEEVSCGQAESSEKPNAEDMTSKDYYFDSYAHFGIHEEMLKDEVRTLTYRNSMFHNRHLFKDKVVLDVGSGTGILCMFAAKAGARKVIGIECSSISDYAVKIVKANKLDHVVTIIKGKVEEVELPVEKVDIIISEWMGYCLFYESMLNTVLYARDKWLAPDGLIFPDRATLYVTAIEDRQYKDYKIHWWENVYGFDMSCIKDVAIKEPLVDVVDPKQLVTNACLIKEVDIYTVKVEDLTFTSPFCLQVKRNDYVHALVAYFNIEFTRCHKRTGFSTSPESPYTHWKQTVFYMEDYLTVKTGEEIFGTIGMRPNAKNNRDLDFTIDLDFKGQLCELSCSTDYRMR
T3 sequence (Q582G4 whole entry): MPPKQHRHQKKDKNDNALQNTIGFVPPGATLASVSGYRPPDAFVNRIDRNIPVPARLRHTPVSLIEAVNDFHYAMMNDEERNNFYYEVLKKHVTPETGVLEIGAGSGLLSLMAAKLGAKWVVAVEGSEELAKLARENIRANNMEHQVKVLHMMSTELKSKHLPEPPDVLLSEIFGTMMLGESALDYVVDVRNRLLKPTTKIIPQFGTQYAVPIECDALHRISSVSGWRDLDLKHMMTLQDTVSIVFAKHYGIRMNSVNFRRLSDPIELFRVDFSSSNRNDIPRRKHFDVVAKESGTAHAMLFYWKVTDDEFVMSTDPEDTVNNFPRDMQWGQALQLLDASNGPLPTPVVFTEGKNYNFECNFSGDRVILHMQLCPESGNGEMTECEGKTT

| IC50 [1, 7] | Ki [1] | SMILES | further results |
| --- | --- | --- | --- |
| 620 ± 80 nM | 310 ± 40 nM | CCNC(=N)NCCCSC[C@H]1O[C@@H](n2cnc3c(N)ncnc32)[C@H](O)[C@@H]1O [Compound 6a, 1-(3-((((2S,3S,4R,5R)-5-(6-amino-9H-purin-9-yl)-3,4-dihydroxytetrahydrofuran-2-yl)methyl)thio)propyl)-3-ethylguanidine] |  |
|  | 45 ± 5 nM | N=C(NCCCSC[C@H]1O[C@@H](n2cnc3c(N)ncnc32)[C@H](O)[C@@H]1O)NC1CCC1 [Compound 6b, 1-(3-((((2S,3S,4R,5R)-5-(6-amino-9H-purin-9-yl)-3,4-dihydroxytetrahydrofuran-2-yl)methyl)thio)propyl)-3-cyclobutylguanidine] | IC50 [1, 8]: 230 ± 20 nM; inhibition at 100 µM [2]: > 50%; inhibitory activity against PRMT7 [3]: no inhibitory activity |
| 220 ± 16 nM | 110 ± 8 nM | N=C(NCCCSC[C@H]1O[C@@H](n2cnc3c(N)ncnc32)[C@H](O)[C@@H]1O)NC1CCCC1 [Compound 6c, 1-(3-((((2S,3S,4R,5R)-5-(6-amino-9H-purin-9-yl)-3,4-dihydroxytetrahydrofuran-2-yl)methyl)thio)propyl)-3-cyclopentylguanidine] |  |
| 110 ± 48 nM | 55 ± 24 nM | N=C(NCCCSC[C@H]1O[C@@H](n2cnc3c(N)ncnc32)[C@H](O)[C@@H]1O)NC1CCCCC1 [Compound 6d, 1-(3-((((2S,3S,4R,5R)-5-(6-amino-9H-purin-9-yl)-3,4-dihydroxytetrahydrofuran-2-yl)methyl)thio)propyl)-3-cyclohexylguanidine] |  |
| 120 ± 26 nM | 60 ± 13 nM | N=C(NCCCSC[C@H]1O[C@@H](n2cnc3c(N)ncnc32)[C@H](O)[C@@H]1O)NCC1CCCCC1 [Compound 6e, 1-(3-((((2S,3S,4R,5R)-5-(6-amino-9H-purin-9-yl)-3,4-dihydroxytetrahydrofuran-2-yl)methyl)thio)propyl)-3-(cyclohexylmethyl)guanidine] |  |
| 290 ± 10 nM | 150 ± 5 nM | N=C(NCCCSC[C@H]1O[C@@H](n2cnc3c(N)ncnc32)[C@H](O)[C@@H]1O)Nc1ccccc1 [Compound 6f, 1-(3-((((2S,3S,4R,5R)-5-(6-amino-9H-purin-9-yl)-3,4-dihydroxytetrahydrofuran-2-yl)methyl)thio)propyl)-3-phenylguanidine] | fold reduction of PRMT1 inhibition compared to 6d ([1]; ratio of IC50 values): about 2.5 fold |
| 720 ± 150 nM | 360 ± 75 nM | N=C(NCCCSC[C@H]1O[C@@H](n2cnc3c(N)ncnc32)[C@H](O)[C@@H]1O)NCc1ccccc1 [Compound 6g, 1-(3-((((2S,3S,4R,5R)-5-(6-amino-9H-purin-9-yl)-3,4-dihydroxytetrahydrofuran-2-yl)methyl)thio)propyl)-3-benzylguanidine] |  |
| 210 ± 60 nM | 110 ± 30 nM | N=C(NCCCSC[C@H]1O[C@@H](n2cnc3c(N)ncnc32)[C@H](O)[C@@H]1O)NCCc1ccccc1 [Compound 6h, 1-(3-((((2S,3S,4R,5R)-5-(6-amino-9H-purin-9-yl)-3,4-dihydroxytetrahydrofuran-2-yl)methyl)thio)propyl)-3-phenethylguanidine] |  |
| 330 ± 110 nM | 170 ± 55 nM | N=C(NCCCSC[C@H]1O[C@@H](n2cnc3c(N)ncnc32)[C@H](O)[C@@H]1O)NCCCc1ccccc1 [Compound 6i, 1-(3-((((2S,3S,4R,5R)-5-(6-amino-9H-purin-9-yl)-3,4-dihydroxytetrahydrofuran-2-yl)methyl)thio)propyl)-3-(3-phenylpropyl)guanidine] |  |
| 210 ± 10 nM | 110 ± 5 nM | N=C(NCCCSC[C@H]1O[C@@H](n2cnc3c(N)ncnc32)[C@H](O)[C@@H]1O)Nc1ccccc1[N+](=O)[O-] [Compound 6j, 1-(3-((((2S,3S,4R,5R)-5-(6-amino-9H-purin-9-yl)-3,4-dihydroxytetrahydrofuran-2-yl)methyl)thio)propyl)-3-(2-nitrophenyl)guanidine] |  |
|  | 58 ± 7 nM | N=C(NCCCSC[C@H]1O[C@@H](n2cnc3c(N)ncnc32)[C@H](O)[C@@H]1O)Nc1ccc(Br)cc1 [Compound 6m, 1-(3-((((2S,3S,4R,5R)-5-(6-amino-9H-purin-9-yl)-3,4-dihydroxytetrahydrofuran-2-yl)methyl)thio)propyl)-3-(4-bromophenyl)guanidine] | IC50 [1, 8]: 290 ± 40 nM; inhibition at 100 µM [2]: > 50% |
|  | 52 ± 14 nM | N=C(NCCCSC[C@H]1O[C@@H](n2cnc3c(N)ncnc32)[C@H](O)[C@@H]1O)NCc1ccc(Br)cc1 [Compound 6n, 1-(3-((((2S,3S,4R,5R)-5-(6-amino-9H-purin-9-yl)-3,4-dihydroxytetrahydrofuran-2-yl)methyl)thio)propyl)-3-(4-bromobenzyl)guanidine] | IC50 [1, 8]: 260 ± 70 nM; inhibition at 100 µM [2]: > 50% |
|  |  | N=C(N)NCCCCN(CCC(N)C(=O)O)C[C@H]1O[C@@H](n2cnc3c(N)ncnc32)[C@H](O)[C@@H]1O (some centres unmarked) [JD-16] | IC50 [4]: 3000 nM |
|  |  | CCCNC(CCC(N)C(=O)O)C[C@H]1O[C@@H](n2cnc3c(N)ncnc32)[C@H](O)[C@@H]1O (some centres unmarked) [Pr-SNF] | IC50 [6]: 9500 nM |
